Measurements as given in patent US20220324909A1, “THERAPEUTIC PEPTIDES” (COHBAR, INC., priority 2019, published 2022).
Non-standard residues stand in square brackets, D forms with d. No end group written: not given here.

Key:
3T3-L1 mouse adipocytes = experiment: Free fatty acid levels in cultured 3T3-L1 mouse adipocytes and insulin dependence (Example 17); format: cell-based; settings: isoproterenol 0.1 nM; for Free Fatty Acid Levels, Percent of Isoproterenol Control Activity No Insulin: peptide 10 μM alone, relative to isoproterenol treated cells; for Free Fatty Acid Levels, Percent of Isoproterenol Control Activity With Insulin: peptide 10 μM with 0.25 nM insulin, relative to 0.25 nM insulin treated cells
Method: The effect of the peptides on fatty acid metabolism can be assessed using an assay to monitor free fatty acid levels produced by cultured cells such as mouse adipocytes. […] Following 3 h incubation, conditioned medium from each well was transferred to a fresh 96-well plate. […] Absorbance values were expressed as percent control activity relative to 0.1 nM isoproterenol treated cells (no insulin) for 10 μM peptide alone or 0.25 nM insulin treated cells (with insulin) for 10 μM peptide in presence of 0.25 nM insulin. […] Data are presented as averages values from 2-3 independent experiments with each data point performed in triplicate.

H4-IIE cells = experiment: Glucose production in cultured H4-IIE cells and insulin dependence; format: cell-based, rat; settings: peptide 10 μM alone, 24 h, relative to untreated cells
Method: The effect of the peptides on glucose homeostasis can be assessed using an assay to monitor glucose production by cultured cells such as rat hepatocytes. […] Following 24 h incubation, conditioned medium from each well was transferred to a fresh 96-well plate. Glucose concentrations in the medium were determined using a Glucose Assay kit (Abcam; Cambridge, Mass.) according to the manufacturer's instructions; absorbance measured using a Cytation 3 plate reader at 570 nm (BioTek, Winooski, Vt.). […] Untreated cells were used as reference for maximal glucose production. […] Insulin at 800 μM was used as a modest inhibitor glucose production. […] Data are presented as averages values from 2-4 independent experiments with each data point performed in triplicate.

Row | Compound | Free Fatty Acid Levels, Percent of Isoproterenol Control Activity No Insulin (3T3-L1 mouse adipocytes) | Free Fatty Acid Levels, Percent of Isoproterenol Control Activity With Insulin (3T3-L1 mouse adipocytes) | Glucose Production, Percent of Control Activity No Insulin (H4-IIE cells)
1 | 54 (RMMGMVFQSLCG[dA]) [compound 54] | 102% | 75% | 112.8%
2 | 53 (RMMGMVFQSL) [compound 53] | 101% | 81% | 91.9%
3 | 34 (RXMMGMVFQSLCGA; (2)..(2) Xaa is Aib (alpha-aminoisobutyric acid); (14)..(14) D-Ala) [compound 34] | 104% | 122% | 96.9%
4 | 59 (RRMMGMVFQS) [compound 59] | 111% | 114% | 114.0%
5 | 41 (RRLLGLVFQSLEG[dA]) [compound 41] | 97% | 73% | 122.7%
6 | 62 (RRMMGMVFQSLCG[dA]-NH2) [compound 62] | 112% | 109% | 105.6%
7 | 51 (RMMGMVFQ) [compound 51] | 99% | 79% | 106.1%
8 | 47 (MMGMVFQS) [compound 47] | 101% | 93% | 108.0%
9 | 55 (RRMMGM) [compound 55] | 100% | 90% | 92.6%
10 | 44 (MMGMV) [compound 44] | 103% | 96% | 98.8%
11 | 45 (MMGMVF) [compound 45] | 105% | 89% | 106.9%
12 | 60 (RRMMGMVFQSL) [compound 60] | 110% | 101% | 115.9%
13 | 58 (RRMMGMVFQ) [compound 58] | 110% | 114% | 114.5%
14 | 35 (RXLLGLVFQSLCGA; (2)..(2) Xaa is Aib (alpha-aminoisobutyric acid); (14)..(14) D-Ala) [compound 35] | 101% | 112% | 98.1%
15 | 48 (MMGMVFQSL) [compound 48] | 92% | 93% | 110.0%
16 | 61 (Ac-RRMMGMVFQSLCG[dA]) [compound 61] | 112% | 143% | 122.7%
17 | 38 (RRMMGMVEQSLCG[dA]) [compound 38] | 101% | 68% | 98.5%
18 | 50 (RMMGMVF) [compound 50] | 103% | 101% | 99.8%
19 | 63 (Ac-RRMMGMVFQSLCG[dA]-NH2) [compound 63] | 112% | 92% | 107.5%
20 | 39 (RRMMGMVFQSLEG[dA]) [compound 39] | 97% | 67% | 103.9%
21 | CC[C@H](C)[C@H](NC(=O)CNC(=O)[C@@H](NC(=O)[C@@H](NC(=O)[C@H](CCCNC(=N)N)NC(=O)[C@@H](N)CCCNC(=N)N)[C@@H](C)CC)[C@@H](C)CC)C(=O)N[C@H](C(=O)N[C@@H](Cc1ccccc1)C(=O)N[C@@H](CCC(N)=O)C(=O)N[C@@H](CO)C(=O)N[C@@H](CC(C)C)C(=O)N[C@@H](CS)C(=O)NCC(=O)N[C@H](C)C(=O)O)C(C)C [compound 43] | 103% | 91% | 115.8%
22 | 49 (MMGMVFQSLCG[dA]) [compound 49] | 101% | 103% | 120.1%
23 | 57 (RRMMGMVF) [compound 57] | 96% | 87% | 98.3%
24 | 52 (RMMGMVFQS) [compound 52] | 102% | 79% | 108.4%
25 | 33 (RRLLGLVFQSLCG[dA]) [compound 33] | 98% | 80% | 113.8%
26 | 40 (RRLLGLVEQSLCG[dA]) [compound 40] | 101% | 76% | 109.6%
27 | 56 (RRMMGMV) [compound 56] | 99% | 94% | 97.1%
28 | 46 (MMGMVFQ) [compound 46] | 98% | 104% | 105.0%
